According to patent publication US12606564B2, “Adenosine receptor antagonist compounds” (ILDONG PHARMACEUTICAL CO., LTD., priority 2019, dated 2026):

How the values were obtained:
[1] = biological target: T1, Human recombinant adenosine A1 receptors (Homo sapiens, UniProt P30542); assay: Human adenosine A1 receptor binding assay with [3H] DPCPX (pyrazolo-pyrimidine compounds, Example 4.1); conditions: membranes of CHO-K1 cells, read-out: hA1 Ki
T1 construct: expressed in transfected cells; host or cells: CHO-K1, membrane preparation
T1 sequence (P30542 1-326): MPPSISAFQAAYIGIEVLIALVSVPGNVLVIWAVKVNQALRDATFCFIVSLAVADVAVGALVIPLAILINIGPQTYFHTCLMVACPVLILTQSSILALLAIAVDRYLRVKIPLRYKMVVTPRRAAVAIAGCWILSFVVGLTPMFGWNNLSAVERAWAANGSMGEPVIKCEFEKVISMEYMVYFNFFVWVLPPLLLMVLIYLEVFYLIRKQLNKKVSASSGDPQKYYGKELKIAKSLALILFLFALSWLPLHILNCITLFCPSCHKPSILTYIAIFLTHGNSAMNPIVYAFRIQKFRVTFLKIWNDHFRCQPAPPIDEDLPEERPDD
Experimental: Test compound is weighed, dissolved in DMSO to make a stock solution of 10 mM, diluted with DMSO to prepare working solutions, then 100-fold diluted to the indicated concentrations. Human recombinant adenosine A1 receptors expressed in CHO-K1 cells were used to prepare membranes in incubation buffer (20 mM HEPES (4-(2-hydroxyethyl)-1-piperazineethanesulfonic acid) pH 7.4, 10 mM MgCl2, 100 mM NaCl). Test compound or vehicle (2.2 μL) was added in 200 μL of membranes and incubated with 20 μL of 1 nM [^3H] DPCPX (8-cyclopentyl-1,3-dipropylxanthine) for 90 minutes at 25° C. Non-specific binding was estimated in the presence of 100 μM R(−)-PIA ((R)—N-(1-methyl-2-phenylethyl)adenosine). The incubation was stopped by vacuum filtration onto 0.3% PEI (polyethylenimine) presoaked GF/B filters using a harvester followed by four washes with ice-cold 50 mM Tris-HCl, pH 7.4, and the radioactivity on GF/B filtermats counted in a scintillation counter (PerkinElmer Topcount™) to determine [^3H] DPCPX specifically bound. Final concentration of vehicle DMSO is 1%.
Data is fitted using the non-linear curve fitting routines in Meth-IQ software (ID Business Solutions Ltd., UK).

[2] = biological target: Human recombinant adenosine A2A receptor (Homo sapiens, UniProt P29274); assay: Human adenosine A2A receptor binding assay with [3H] CGS-21680 (Example 4.2); conditions: for activity as dual antagonists of both A2A and A1 receptors (in words): summary of Table 5, binding assays of Examples 4.1 and 4.2
Sequence of Human recombinant adenosine A2A receptor (P29274 whole entry): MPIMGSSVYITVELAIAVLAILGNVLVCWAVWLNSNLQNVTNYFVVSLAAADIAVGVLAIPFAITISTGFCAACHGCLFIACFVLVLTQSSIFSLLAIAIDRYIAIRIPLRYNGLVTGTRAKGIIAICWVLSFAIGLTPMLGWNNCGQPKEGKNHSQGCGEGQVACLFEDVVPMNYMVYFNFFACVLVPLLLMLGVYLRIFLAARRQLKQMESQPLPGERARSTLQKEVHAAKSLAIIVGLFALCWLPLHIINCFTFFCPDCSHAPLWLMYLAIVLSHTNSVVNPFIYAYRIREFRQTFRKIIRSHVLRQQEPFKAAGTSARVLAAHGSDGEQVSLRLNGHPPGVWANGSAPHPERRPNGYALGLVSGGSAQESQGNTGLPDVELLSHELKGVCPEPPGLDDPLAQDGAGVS
Experimental: Test compound is weighed, dissolved in DMSO to make a stock solution of 10 mM, diluted with DMSO to prepare working solutions, then 100-fold diluted to the indicated concentrations. Human recombinant adenosine A2A receptors expressed in HEK-293 cells were used to prepare membranes in incubation buffer (50 mM Tris-HCl, pH 7.4, 10 mM MgCl2, 1 mM EDTA, 2 U/ml Adenosine Deaminase). Test compound or vehicle (2.2 μL) was added in 200 μL of membranes and incubated with 20 μL of 50 nM [^3H] […] Non-specific binding was estimated in the presence of 50 μM NECA (5′-N-ethylcarboxamidoadenosine). The incubation was stopped by vacuum filtration onto 0.3% PEI (polyethylenimine) presoaked GF/B filters using a harvester followed by four washes with ice-cold 50 mM Tris-HCl, pH 7.4, and the radioactivity on GF/B filtermats counted in a scintillation counter (PerkinElmer Topcount™) to determine [^3H] […] Final concentration of vehicle DMSO is 1%.

Ki [1] [nM]	Ki [2] [nM]	activity as dual antagonists of both A2A and A1 receptors (in words) [2]	Structure (SMILES)
≤ 100	< 20	potent activity as dual antagonists	N#Cc1cccc(-c2nc(N)nc3c2cnn3Cc2c(F)cc(N)cc2F)c1F [Compound 208, 3-(6-amino-1-(4-amino-2,6-difluorobenzyl)-1H-pyrazolo[3,4-d]pyrimidin-4-yl)-2-fluorobenzonitrile]
–	–	potent activity as dual antagonists	Cc1cc(Cn2ncc3c(-c4cccc(C#N)c4F)nc(N)nc32)ccc1N [Compound 206, 3-(6-amino-1-(4-amino-3-methylbenzyl)-1H-pyrazolo[3,4-d]pyrimidin-4-yl)-2-fluorobenzonitrile]
–	–	potent activity as dual antagonists	N#Cc1cccc(-c2nc(N)nc3c2cnn3Cc2c(F)cc(N)cc2F)c1 [Compound 207, 3-(6-amino-1-(4-amino-2,6-difluorobenzyl)-1H-pyrazolo[3,4-d]pyrimidin-4-yl)benzonitrile]
